Test results published in the NIST ThermoML archive (doi:10.1021/je3006985).

What was measured:
[1] = mn = molality of the nth substance listed, in mol/kg; conditions: 298.15 K, 101 kPa, Liquid
[2] = osmotic coefficient (dimensionless); mn = molality of the nth substance listed, in mol/kg; conditions: 298.15 K, Liquid, Vapor Pressure Osmometer (Knaur K-7000)

CCCCNc1ccc(C(=O)OCCN(C)C)cc1.Cl + O
Conditions	mass density, [1] [kg/m3]	osmotic coefficient, [2]
m1 = 0.01696	997.722	0.896
m1 = 0.0205	997.869	0.884
m1 = 0.02526	998.076	0.871
m1 = 0.0301	998.265	0.858
m1 = 0.03454	998.444	0.848
m1 = 0.03897	998.614	0.839
m1 = 0.04254	998.764	0.832
m1 = 0.04793	998.98	0.822
m1 = 0.05807	999.405	0.805
m1 = 0.06741	999.767	0.79
m1 = 0.07521	1000.07	0.778
m1 = 0.08589	1000.49	0.762
m1 = 0.09567	1000.88	0.747
m1 = 0.1161	1001.66	0.716
m1 = 0.1436	1002.67	0.672
m1 = 0.1726	1003.78	0.622
m1 = 0.1924	1004.46	0.587
m1 = 0.2427	1006.27	0.498
m1 = 0.3009	1008.22	0.411
m1 = 0.3479	1009.67	0.367
m1 = 0.4005	1011.44	0.363

CCN(CC)CC(=O)Nc1c(C)cccc1C.Cl [lidocaine hydrochloride] + O
Conditions	mass density, [1] [kg/m3]	osmotic coefficient, [2]
m1 = 0.01004	997.37	0.879
m1 = 0.02018	997.713	0.83
m1 = 0.02958	998.034	0.807
m1 = 0.03474	998.184	0.8
m1 = 0.03911	998.35	0.796
m1 = 0.04409	998.51	0.793
m1 = 0.04809	998.641	0.792
m1 = 0.05588	998.887	0.792
m1 = 0.07017	999.384	0.796
m1 = 0.09322	1000.14	0.805
m1 = 0.1151	1000.85	0.812
m1 = 0.141	1001.69	0.813
m1 = 0.1712	1002.65	0.805
m1 = 0.188	1003.15	0.797
m1 = 0.2082	1003.81	0.785
m1 = 0.2386	1004.84	0.765
m1 = 0.2675	1005.71	0.748
m1 = 0.2906	1006.37	0.736
m1 = 0.3089	1006.95	0.728
m1 = 0.3399	1007.94	0.72
m1 = 0.3919	1009.45	0.718
m1 = 0.4432	1011.03	0.72
m1 = 0.4982	1012.71	0.696

CCN(CC)CCOC(=O)c1ccc(N)cc1.Cl [2-diethylaminoethyl p-aminobenzoate hydrochloride] + O
Conditions	mass density, [1] [kg/m3]	osmotic coefficient, [2]
m1 = 0.0158	997.809	0.885
m1 = 0.01893	997.979	0.873
m1 = 0.02475	998.219	0.856
m1 = 0.03023	998.477	0.843
m1 = 0.03265	998.609	0.838
m1 = 0.03891	998.872	0.827
m1 = 0.04358	999.105	0.82
m1 = 0.04823	999.338	0.814
m1 = 0.05787	999.774	0.804
m1 = 0.0712	1000.37	0.794
m1 = 0.09584	1001.52	0.781
m1 = 0.1165	1002.46	0.772
m1 = 0.1438	1003.64	0.759
m1 = 0.1749	1005.05	0.741
m1 = 0.1973	1005.94	0.727
m1 = 0.2187	1007.01	0.713
m1 = 0.2457	1008.14	0.694
m1 = 0.2791	1009.54	0.673
m1 = 0.2997	1010.41	0.661
m1 = 0.3205	1011.32	0.65
m1 = 0.3523	1012.67	0.636
m1 = 0.4061	1014.95	0.62
m1 = 0.4613	1016.97	0.609
m1 = 0.517	1019.21	0.587
